Laboratory results from PubChem BioAssay AID1259411 (Chemical Carcinogenesis Research Information System (CCRIS), 2018).
Calls of active or inactive are those of the source. How the calls were made is not given here.

Tested on: rodent carcinogenicity bioassays, tumor incidence
Assay: CCRIS carcinogenicity studies
Method in brief: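 Archive of carcinogenicity, mutagenicity, tumor promotion and tumor inhibition results drawn from journals, NCI reports and other sources, expert-reviewed; covers 1985-2011 and is no longer updated.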

SMILES: COc1cc2c(c3c1c(=O)c1ccccc1n3C)C=CC(C)(C)O2
- carcinogen call (Species: RAT, Strain/Sex: SPRAGUE-DAWLEY/FEMALE, Route: INTRAPERITONEAL, Dose: 0, 3.75, 7.5, 15 MG/KG FOR 52 WK (STUDY DURATION: 80-82 WK), Dose: 0, 3.75, 7.5, 15 MG/KG FOR 52 WK (STUDY DURATION: 80-82 WK), Tumor Site: Type of Lesion: MAMMARY GLAND: FIBROADENOMA, PERITONEAL CAVITY: SARCOMA OR FIBROSARCOMA OR MESOTHELIOMA): active; positive
- carcinogen call (Species: RAT, Strain/Sex: SPRAGUE-DAWLEY/MALE, Route: INTRAPERITONEAL, Dose: 0, 3.75, 7.5, 15 MG/KG FOR 51-52 WK (STUDY DURATION: 51-82 WK), Dose: 0, 3.75, 7.5, 15 MG/KG FOR 51-52 WK (STUDY DURATION: 51-82 WK), Tumor Site: Type of Lesion: MUSCULOSKELETAL SYSTEM: OSTEOSARCOMA, PERITONEAL CAVITY: SARCOMA OR FIBROSARCOMA OR MESOTHELIOMA): active; positive

SMILES: CC(=O)OC/C=C(C)/C=C/C=C(C)/C=C/C1=C(C)CCCC1(C)C
- carcinogen call (Species: RAT, Strain/Sex: F344/FEMALE, Route: ORAL, Dose: 0, 0.125, 0.25% IN DRINKING WATER (TOTAL DOSE: 0; 50; 95 G/KG) FOR 104 WK (STUDY DURATION: 108 WK), Dose: 0, 0.125, 0.25% IN DRINKING WATER (TOTAL DOSE: 0; 50; 95 G/KG) FOR 104 WK (STUDY DURATION: 108 WK), Tumor Site: Type of Lesion: ADRENAL GLAND: MALIGNANT OR BENIGN PHEOCHROMOCYTOMA, BENIGN PHEOCHROMOCYTOMA, BILATERAL LESIONS, CLITORAL GLAND: ADENOMA): active; positive
- carcinogen call (Species: RAT, Strain/Sex: F344/MALE, Route: ORAL, Dose: 0, 0.125, 0.25% IN DRINKING WATER (TOTAL DOSE: 0; 50; 95 G/KG) FOR 104 WK (STUDY DURATION: 108 WK), Dose: 0, 0.125, 0.25% IN DRINKING WATER (TOTAL DOSE: 0; 50; 95 G/KG) FOR 104 WK (STUDY DURATION: 108 WK), Tumor Site: Type of Lesion: ADRENAL GLAND: MALIGNANT PHEOCHROMOCYTOMA, BENIGN PHEOCHROMOCYTOMA, BILATERAL LESIONS): active; positive

SMILES: C=[N+]=[N-]
- carcinogen call (Species: MOUSE, Route: INHALATION, DERMAL, Tumor Site: Type of Lesion: LUNG): active; positive
- carcinogen call (Species: RAT, Route: INHALATION, Tumor Site: Type of Lesion: LUNG): active; positive

SMILES: O=C1c2ccccc2-c2ccc([N+](=O)[O-])c3cccc1c23
- carcinogen call (Species: RAT, Strain/Sex: F344/FEMALE, Route: INTRATRACHEAL, Dose: 0, 1.5 MG TOTAL, 2.5 MG TOTAL OVER 18 MO (STUDY DURATION: 18 MO), Dose: 0, 1.5 MG TOTAL, 2.5 MG TOTAL OVER 18 MO (STUDY DURATION: 18 MO), Tumor Site: Type of Lesion: LUNG: CARCINOMA): active; positive (at higher dosage and longer duration)

SMILES: O=C(OC[C@@H]1O[C@H](OC(=O)c2cc(O)c(O)c(OC(=O)c3cc(O)c(O)c(O)c3)c2)[C@@H](OC(=O)c2cc(O)c(O)c(OC(=O)c3cc(O)c(O)c(O)c3)c2)[C@H](OC(=O)c2cc(O)c(O)c(OC(=O)c3cc(O)c(O)c(O)c3)c2)[C@H]1OC(=O)c1cc(O)c(O)c(OC(=O)c2cc(O)c(O)c(O)c2)c1)c1cc(O)c(O)c(OC(=O)c2cc(O)c(O)c(O)c2)c1
- carcinogen call (Species: MOUSE, Route: SUBCUTANEOUS, Tumor Site: Type of Lesion: LIVER, INJECTION SITE): active; positive
- carcinogen call (Species: RAT, Route: SUBCUTANEOUS, Tumor Site: Type of Lesion: LIVER): active; positive
- carcinogen call (Species: RAT, Strain/Sex: F344/FEMALE, Route: ORAL, Dose: 0, 0.25, 0.5% IN DISTILLED WATER AS DRINKING WATER FOR 2 YR (STUDY DURATION: 114 WK), Dose: 0, 0.25, 0.5% IN DISTILLED WATER AS DRINKING WATER FOR 2 YR (STUDY DURATION: 114 WK)): inactive; negative
- carcinogen call (Species: RAT, Strain/Sex: F344/MALE, Route: ORAL, Dose: 0, 0.25, 0.5% IN DISTILLED WATER AS DRINKING WATER FOR 2 YR (STUDY DURATION: 114 WK), Dose: 0, 0.25, 0.5% IN DISTILLED WATER AS DRINKING WATER FOR 2 YR (STUDY DURATION: 114 WK)): inactive; negative

SMILES: O=[N+]([O-])c1cc([As](=O)(O)O)ccc1O
- carcinogen call (Species: MOUSE, Strain/Sex: B6C3F1/FEMALE, Route: ORAL, Dose: 0, 100, 200 PPM IN FEED FOR 103 WK (STUDY DURATION: 105 WK), Dose: 0, 100, 200 PPM IN FEED FOR 103 WK (STUDY DURATION: 105 WK)): inactive; negative
- carcinogen call (Species: MOUSE, Strain/Sex: B6C3F1/MALE, Route: ORAL, Dose: 0, 100, 200 PPM IN FEED FOR 103 WK (STUDY DURATION: 105 WK), Dose: 0, 100, 200 PPM IN FEED FOR 103 WK (STUDY DURATION: 105 WK)): inactive; negative
- carcinogen call (Species: RAT, Strain/Sex: F344/FEMALE, Route: ORAL, Dose: 0, 50, 100 PPM IN FEED FOR 103 WK (STUDY DURATION: 104 WK), Dose: 0, 50, 100 PPM IN FEED FOR 103 WK (STUDY DURATION: 104 WK)): inactive; negative
- carcinogen call (Species: RAT, Strain/Sex: F344/MALE, Route: ORAL, Dose: 0, 50, 100 PPM IN FEED FOR 103 WK (STUDY DURATION: 104 WK), Dose: 0, 50, 100 PPM IN FEED FOR 103 WK (STUDY DURATION: 104 WK), Tumor Site: Type of Lesion: EXOCRINE PANCREAS: ADENOMA): equivocal

SMILES: ClC(Cl)(Cl)Cl
- carcinogen call (Species: FISH, Strain/Sex: RAINBOW TROUT, Route: INTRAPERITONEAL, Dose: 0, 1 ML/KG AT 21 D INTERVALS FOR A TOTAL OF 7 DOSES (STUDY DURATION: 6 MO)): inactive; negative
- carcinogen call (Species: MOUSE, Route: ORAL, GAVAGE, Tumor Site: Type of Lesion: LIVER: HEPATOMA, HEPATOCELLULAR CARCINOMA): active; positive
- carcinogen call (Species: Mouse, Strain/Sex: BDF1/Female (50/group), Route: Inhalation, Dose: 0, 5, 25, 125 ppm (v/v) 6 hr/d, 5 d/wk for 104 wk, Dose: 0, 5, 25, 125 ppm (v/v) 6 hr/d, 5 d/wk for 104 wk, Tumor Site: Type of Lesion: Liver: hepatocellular carcinoma (2/50; 1/49; 33/50; 48/49), hepatocellular adenoma (2/50; 8/49; 17/50; 5/49). Adrenal Gl, Tumor Site: Type of Lesion: Liver: hepatocellular carcinoma (2/50; 1/49; 33/50; 48/49), hepatocellular adenoma (2/50; 8/49; 17/50; 5/49). Adrenal Gl): active; positive
- carcinogen call (Species: Mouse, Strain/Sex: BDF1/Male (50/group), Route: Inhalation, Dose: 0, 5, 25, 125 ppm (v/v) 6 hr/d, 5 d/wk for 104 wk, Dose: 0, 5, 25, 125 ppm (v/v) 6 hr/d, 5 d/wk for 104 wk, Tumor Site: Type of Lesion: Liver: hepatocellular carcinoma (17/50; 12/50; 44/50; 47/50), hepatocellular adenoma (9/50; 10/50; 27/50; 16/50). Adrena, Tumor Site: Type of Lesion: Liver: hepatocellular carcinoma (17/50; 12/50; 44/50; 47/50), hepatocellular adenoma (9/50; 10/50; 27/50; 16/50). Adrena): active; positive (dose related metastasis of liver tumors to lung)
- carcinogen call (Species: RAT, Route: SUBCUTANEOUS, Tumor Site: Type of Lesion: LIVER: HEPATOCELLULAR CARCINOMA): active; positive
- carcinogen call (Species: Rat, Strain/Sex: F344/Female (50/group), Route: Inhalation, Dose: 0, 5, 25, 125 ppm (v/v) 6 hr/d, 5 d/wk for 104 wk, Dose: 0, 5, 25, 125 ppm (v/v) 6 hr/d, 5 d/wk for 104 wk, Tumor Site: Type of Lesion: Liver: hepatocellular carcinoma (0/50; 0/50; 3/50; 15/50), hepatocellular adenoma (0/50; 0/50; 40/50), Tumor Site: Type of Lesion: Liver: hepatocellular carcinoma (0/50; 0/50; 3/50; 15/50), hepatocellular adenoma (0/50; 0/50; 40/50)): active; positive
- carcinogen call (Species: Rat, Strain/Sex: F344/Male (50/group), Route: Inhalation, Dose: 0, 5, 25, 125 ppm (v/v) 6 hr/d, 5 d/wk for 104 wk, Dose: 0, 5, 25, 125 ppm (v/v) 6 hr/d, 5 d/wk for 104 wk, Tumor Site: Type of Lesion: Liver: hepatocellular carcinoma (1/50; 0/50; 32/50), hepatocellular adenoma (0/50; 1/50; 21/50), Tumor Site: Type of Lesion: Liver: hepatocellular carcinoma (1/50; 0/50; 32/50), hepatocellular adenoma (0/50; 1/50; 21/50)): active; positive

SMILES: C#CCN1CC(=O)N(COC(=O)C2C(C=C(C)C)C2(C)C)C1=O (stereo unspecified)
- carcinogen call (Species: Mouse, Strain/Sex: Crj:CD-1 (ICR)/Female (51/Group), Route: Oral, Dose: 0, 100, 3500, 7000 ppm of 92.9% imiprothrin in diet for 78 wk, study duration 78 wk, Dose: 0, 100, 3500, 7000 ppm of 92.9% imiprothrin in diet for 78 wk, study duration 78 wk): inactive; negative
- carcinogen call (Species: Mouse, Strain/Sex: Crj:CD-1 (ICR)/Male (51/Group), Route: Oral, Dose: 0, 100, 3500, 7000 ppm of 92.9% imiprothrin in diet for 78 wk, study duration 78 wk, Dose: 0, 100, 3500, 7000 ppm of 92.9% imiprothrin in diet for 78 wk, study duration 78 wk): inactive; negative
- carcinogen call (Species: Rat, Strain/Sex: Sprague-Dawley/Female (50/Group), Route: Oral, Dose: 0, 50, 250, 2500, 5000 ppm of 92.9% imiprothrin in diet for 104 wk, study duration 104 wk, Dose: 0, 50, 250, 2500, 5000 ppm of 92.9% imiprothrin in diet for 104 wk, study duration 104 wk): inactive; negative
- carcinogen call (Species: Rat, Strain/Sex: Sprague-Dawley/Male (50/Group), Route: Oral, Dose: 0, 50, 250, 2500, 5000 ppm of 92.9% imiprothrin in diet for 104 wk, study duration 104 wk, Dose: 0, 50, 250, 2500, 5000 ppm of 92.9% imiprothrin in diet for 104 wk, study duration 104 wk): inactive; negative
